In paper PMC3518395 (Nature communications, 2012):
Square brackets hold non-standard residues; d marks the D form.

Columns and labels:
[1] = test system: αvβ3; conditions: cited from earlier work
[2] = target: integrin αvβ3 (Homo sapiens) (UniProt P06756); conditions: cited from earlier work
[3] = target: T1, DNA:PNA-D5 (15 c(RGDfK) ligands) (also: 15 copies conjugated via PEG/squarate linker to LKγ-PNA:DNA scaffold); assay: 125I-echistatin competitive displacement on C32 cells
T1 chain: cyclo(RGD[dF]K)

Molecule: Echistatin
- echistatin association constant for binding to αvβ3 integrin ([1]; published value, fixed in the fit): 3.33e+09 M
- Kd ([1]; read-out: Kd of echistatin for αvβ3): 300 pM

Molecule: echistatin (from UniProt P17347)
- Kd [2]: 300 pM

B1: integrin αvβ3 (protein)
chain 1: FNLDVDSPAEYSGPEGSYFGFAVDFFVPSASSRMFLLVGAPKANTTQPGIVEGGQVLKCDWSSTRRCQPIEFDATGNRDYAKDDPLEFKSHQWFGASVRSKQDKILACAPLYHWRTEMKQEREPVGTCFLQDGTKTVEYAPCRSQDIDADGQGFCQGGFSIDFTKADRVLLGGPGSFYWQGQLISDQVAEIVSKYDPNVYSIKYNNQLATRTAQAIFDDSYLGYSVAVGDFNGDGIDDFVSGVPRAARTLGMVYIYDGKNMSSLYNFTGEQMAAYFGFSVAATDINGDDYADVFIGAPLFMDRGSDGKLQEVGQVSVSLQRASGDFQTTKLNGFEVFARFGSAIAPLGDLDQDGFNDIAIAAPYGGEDKKGIVYIFNGRSTGLNAVPSQILEGQWAARSMPPSFGYSMKGATDIDKNGYPDLIVGAFGVDRAILYRARPVITVNAGLEVYPSILNQDNKTCSLPGTALKVSCFNVRFCLKADGKGVLPRKLNFQVELLLDKLKQKGAIRRALFLYSRSPSHSKNMTISRGGLMQCEELIAYLRDESEFRDKLTPITIFMEYRLDYRTAADTTGLQPILNQFTPANISRQAHILLDCGEDNVCKPKLEVSVDSDQKKIYIGDDNPLTLIVKAQNQGEGAYEAELIVSIPLQADFIGVVRNNEALARLSCAFKTENQTRQVVCDLGNPMKAGTQLLAGLRFSVHQQSEMDTSVKFDLQIQSSNLFDKVSPVVSHKVDLAVLAAVEIRGVSSPDHVFLPIPNWEHKENPETEEDVGPVVQHIYELRNNGPSSFSKAMLHLQWPYKYNNNTLLYILHYDIDGPMNCTSDMEINPLRIKISSLQTTEKNDTVAGQGERDHLITKRDLALSEGDIHTLGCGVAQCLKIVCQVGRLDRGKSAILYVKSLLWTETFMNKENQNHSYSLKSSASFNVIEFPYKNLPIEDITNSTLVTTNVTWGIQPAPMPV
chain 2: GPNICTTRGVSSCQQCLAVSPMCAWCSDEALPLGSPRCDLKENLLKDNCAPESIEFPVSEARVLEDRPLSDKGSGDSSQVTQVSPQRIALRLRPDDSKNFSIQVRQVEDYPVDIYYLMDLSYSMKDDLWSIQNLGTKLATQMRKLTSNLRIGFGAFVDKPVSPYMYISPPEALENPCYDMKTTCLPMFGYKHVLTLTDQVTRFNEEVKKQSVSRNRDAPEGGFDAIMQATVCDEKIGWRNDASHLLVFTTDAKTHIALDGRLAGIVQPNDGQCHVGSDNHYSASTTMDYPSLGLMTEKLSQKNINLIFAVTENVVNLYQNYSELIPGTTVGVLSMDSSNVLQLIVDAYGKIRSKVELEVRDLPEELSLSFNATCLNNEVIPGLKSCMGLKIGDTVSFSIEAKVRGCPQEKEKSFTIKPVGFKDSLIVQVTFDCDCACQAQAEPNSHRCNNGNGTFECGVCRCGPGWLGSQCECSEEDYRPSQQDECSPREGQPVCSQRGECLCGQCVCHSSDFGKITGKYCECDDFSCVRYKGEMCSGHGQCSCGDCLCDSDWTGYYCNCTTRTDTCMSSNGLLCSGRGKCECGSCVCIQPGSYGDTCEKCPTCPDACTFKKECVECKKFDRGALHDENTCNRYCRDEIESVKELKDTGKDAVNCTYKNEDDCVVRFQYYEDSSGKSILYVVEEPECPKGPD
- Kd [3]: 160 pM
